In brackets after ≈: the same amount, converted by molar mass. Read-outs that look alike come from different tables or passages of the source.

In series [1] the test system is Staphylococcus aureus. Put plainly: Minimal bactericidal concentration (MBC) from MIC plates. Type of series: cell-based. To be noted: antibiotic alone. An excerpt:
The MBC was defined as the lowest concentration of antimicrobials yielding colony counts <0.1% (3 log10 reduction) of the initial inoculum (as determined by colony counts from the growth control well immediately after inoculation) as described.

Series [2] relates to Staphylococcus aureus. Put plainly: Bactericidal activity on planktonic cultures. Type of series: cell-based. As to conditions: antibiotic alone. The procedure:
Methodology: In late logarithmic growth phase, the bacteria were harvested by centrifugation at 12,000×g for 10 minutes and resuspended in phosphate-buffered saline (PBS; […], […], […], pH 7.4). Appropriate dilutions of the bacteria were suspended in PBS and treated with indicated concentrations of ALAFAC and/or antibiotics for various times. The effect on bacterial viability was assessed by plating serial dilutions of bacterial sample on tryptic soy agar plates containing 5% sheep blood (viable counts) and determining viable colony forming units after overnight growth at 37° C.

The subject of series [3] is S. aureus NRS70 (MRSA) nasopharyngeal colonization. Kind of series: Murine nasopharyngeal colonization model, intranasal treatment. It is filed as in vivo, Staphylococcus aureus. As to conditions: for Colonization burden: mice colonized with NRS70 for 48 hours, methicillin single dose 100 μg (5,000 μg/ml) alone, ALAFAC alone at the same dose. The procedure: Methodology: Six-week-old female BALB/cByJ mice from Jackson Laboratories (Bar Harbor, Me., U.S.A.) were maintained in filter-top cages on standard laboratory chow and water ad libitum until use. Mice were colonized as described previously. In short, 20 μl of a bacterial suspension containing 5×10^6 CFUs of EF3030 pneumococci, 1×10^8 CFUs of SP670 pneumococci, or 5×10^7 NRS70 methicillin-resistant S. aureus in PBS were pipetted into the nares of non-anesthetized mice. After 48 hours, mice were treated with 20 μl gentamicin (0-5,000 μg/mL), 20 μl penicillin (0-5,000 μg/mL), or 20 μl of methicillin (0-5,000 μg/ml) in the presence or absence of 50 or 100 μg ALAFAC in the nares for 6 hours as a single dose. Colonization burden was then assessed after euthanizing the animals by enumerating viable bacteria from harvested nasopharyngeal tissue after the nasal wash. Nasopharyngeal tissue was dissected out as described by removing the upper skull bone, and harvesting the tissue present in the nasal conchae with forceps. Bacterial load was measured by determining viable plate counts from the homogenized tissue.
Mice were colonized as described. In short, 10 μl of a bacterial suspension containing 5×10^7 CFUs of NRS 70 staphylococci in PBS were pipetted into the nares of non-anesthetized mice. After 24 hours, mice were treated with 20 μl methicillin (0-100 μg or 0-5,000 μg/mL) in the presence or absence of 20 μl (100 μg) ALAFAC in the nares for 12 hours. Colonization burden was then assessed after euthanizing the animals by enumerating viable bacteria both in a nasopharyngeal lavage obtained by injecting 100 μL PBS in the trachea of mice and collecting it as it flowed out the nares, and from harvested nasopharyngeal tissue after the nasal wash. Nasopharyngeal tissue was dissected out as described by removing the upper skull bone, and harvesting the tissue present in the nasal conchae with forceps. Bacterial load was measured by determining viable plate counts from the nasal lavage or from homogenized tissue as described above.

The subject of a further series is healthy human cells. To be noted: cited from earlier work.
For another series, the system named is Bacillus subtilis. To be noted: concentrations up to 5 mg/ml; cited from earlier work.
In another series the test system is Staphylococci. Put plainly: Gentamicin, Vancomycin FL and Bocillin FL binding. Type of series: cell-based, Staphylococcus aureus. To be noted: for Cell-associated level of vancomycin on addition of ALAFAC / Bocillin FL association with cells on addition of ALAFAC: 100 μg/mL ALAFAC. The procedure:
Gentamicin, Vancomycin and Bocillin FL Binding. We adapted a previously described method using AlexaFluor 488-gentamicin, vancomycin FL and Bocillin FL as reporter antibiotics to investigate association of these compounds with the staphylococcal cells. In brief, indicated strains were grown in TSB to an OD600nm of 0.5. Antibiotics were added at the following concentrations: Gentamicin at 50 μg/mL, Vancomycin FL at 20 μg/mL, Bocillin FL at 25 μg/mL alone, or in combination with ALAFAC at 100 μg/mL.
After 30 minutes, cultures were centrifuged at 9,000×g for 4 min, washed four times with PBS, and resuspended in a small volume of PBS. Cells were lysed by 5 successive freeze thaw cycles at −80° C. and 37° C. for 5 min each as described. The Bocillin FL, vancomycin FL or Alexa Fluor 488-gentamicin concentration was determined by measuring the amount of fluorescent material in a Synergy 2 microplate reader (Biotek) using excitation and emission wavelengths set at 485 and 530 nm, respectively. Linearity was obtained between 2 and 800 μg/mL; (R^2=0.9983) for AlexaFluor 488-gentamicin, between 0.5 and 100 μg/mL; (R^2=0.9928) for Bocillin FL, and between 0.25 and 50 μg/mL; (R^2=0.9919) for Vancomycin FL, with binding expressed as a ratio of the fluorescence of each sample divided with the sample protein content, determined by the 280/260 nm ratio using the using a BioTek Synergy 2 plate reader with the Take3 microdrop addition (Biotek)

For the next series, the system named is NRS 384 Staphylococci. Put plainly: Radioisotope 45Ca2+ transport assay. As to conditions: ALAFAC addition, Ruthenium Red 30 μM. Type of series: cell-based, Staphylococcus aureus. As to the method: Radioisotope ^45Ca^2+ transport assays. Staphylococcus aureus was grown to log phase, washed three times and resuspended in 1×PBS containing 0.5 mM CaCl2 (CaPBS). No glucose was added in order to minimize the interference created by extrusion of Ca^2+ via ATPase pumps. ^45CaCl2 (PerkinElmer; Waltham, Mass., USA) was added to the cells at a final concentration of 2.5 μCi/mL, followed by inhibitor compound, with each addition given two minutes equilibration time. The untreated baseline sample was measured at this point. The sample was then divided, ALAFAC was added to one of the tubes, and ^45Ca^2+ uptake was measured at various intervals. For each sample, 100 μL was dispensed onto Millipore 0.3 μm PHWP filters (EMD Millipore; Billerica, Mass., USA) presoaked in CaPBS, and immediately washed with 9 mL of CaPBS via syringe filtration through Millipore Swinnex® filter holders. Filters were placed in scintillation vials with 5 mL of scintillation fluid, and CPMs were detected on a Wallac 1409 liquid scintillation counter (Wallac Oy, Turku, Finland). The results were expressed as ΔCPM that was calculated for each sample at the indicated time points as the difference between ALAFAC-treated and untreated samples.

Where [4] appears, read: S. aureus NRS384, within 4-6 hours.

As a reminder, the MBC is the lowest tested concentration that kills the bacteria rather than only halting them. On to `COc1cccc(OC)c1C(=O)N[C@@H]1C(=O)N2[C@@H]1SC(C)(C)[C@@H]2C(=O)O` [Methicillin, methicillin], for which the MBC is over 256 µg/mL in the series with Staphylococcus aureus [1] (Staphylococcus aureus, NRS1, S. aureus NRS1, read-out: MBC); 128 µg/mL (≈ 336 µM) with Staphylococcus aureus [1] (Staphylococcus aureus, NRS70, S. aureus NRS70, read-out: MBC); over 256 µg/mL in the series on Staphylococcus aureus [1] (Staphylococcus aureus, NRS71, S. aureus NRS71, read-out: MBC); over 256 µg/mL in the series on Staphylococcus aureus [1] (Staphylococcus aureus, NRS100, S. aureus NRS100, read-out: MBC); over 256 µg/mL with Staphylococcus aureus [1] (Staphylococcus aureus, NRS123, S. aureus NRS123, read-out: MBC); over 256 µg/mL in the series on Staphylococcus aureus [1] (Staphylococcus aureus, NRS384, S. aureus NRS384, read-out: MBC). The MBC in the series on Staphylococcus aureus [1] (Staphylococcus aureus, S. aureus 11090306, read-out: MBC) is 64 µg/mL (≈ 168 µM); with Staphylococcus aureus [1] (Staphylococcus aureus, S. aureus 10307570, read-out: MBC), over 256 µg/mL. Besides, the “Minimum antibiotic concentration for bactericidal (>3 log10) activity, planktonic” value in the series with Staphylococcus aureus [2] (S. aureus 10307570) was over 128 μg/ml; in the series on Staphylococcus aureus [2] (S. aureus 11090306), 64 μg/ml; in the series on Staphylococcus aureus [2] (S. aureus NRS1), over 128 μg/ml; in the series with Staphylococcus aureus [2] (S. aureus NRS70) it was 128 μg/ml; in the series with Staphylococcus aureus [2] (S. aureus NRS71), over 128 μg/ml; with Staphylococcus aureus [2] (S. aureus NRS100) it was over 128 μg/ml. Also, the “Minimum antibiotic concentration for bactericidal (>3 log10) activity, planktonic” value in the series on Staphylococcus aureus [2] (S. aureus NRS123) and in the series on Staphylococcus aureus [2] (setting [4]) was over 128 μg/ml each time. Further, the “Minimum antibiotic concentration for bactericidal (>3 log10) activity on murine nasopharyngeal colonization” value in series [3] (NRS70, mice, within 12 hours, antibiotic alone) is on record as over 100 μg/dose. In series [3] (mice colonized with NRS 70 for 24 h, one dose, 100 μg methicillin alone or with 100 μg ALAFAC, 12 hours), the “MRSA colonization, nasopharyngeal tissue” value is reported as “failed to significantly reduce”. Moreover, the Colonization burden entry in series [3] is given as “no effect”.
On to gentamicin, for which the MBC with Staphylococcus aureus [1] (S. aureus NRS1) was over 256 µg/mL; against Staphylococcus aureus [1] (S. aureus NRS384) it was 16 µg/mL. In the series with Staphylococcus aureus [2] (setting [4]), the “Minimum antibiotic concentration for bactericidal (>3 log10) activity, planktonic” value stood at 50 μg/ml.

B1: ALAFAC: non-covalent complex of alpha-lactalbumin and fatty acid (oleic acid); labeled HAMLET or HL in drawings and tables (protein, UniProt P00709 20-142, looked up)
Alpha-lactalbumin: KQFTKCELSQLLKDIDGYGGIALPELICTMFHTSGYDTQAIVENNESTEYGLFQISNKLWCKSSQVPQSRNICDISCDKFLDDDITDDIMCAKKILDIKGIDYWLAHKALCTEKLEQWLCEKL
modifications: complexed with oleic acid
Take B1: the Toxicity result in the series on healthy human cells is recorded as “no toxicity”. In addition, the Colonization burden result in series [3] is “no effect”. In addition, in the series with Bacillus subtilis, the Bactericidal activity entry is “no detectable activity”. The “Increase of cell-associated level of gentamicin by ALAFAC” value with Staphylococci (NRS384, ALAFAC 100 μg/mL, P=0.09) is recorded as 2.6 fold. Moreover, the results for the “Cell-associated level of vancomycin on addition of ALAFAC” value with Staphylococci (VISA strain NRS 1) and in the series on Staphylococci (vancomycin-sensitive strain) were “significantly increased” and “did not increase”, respectively. The “Bocillin FL association with cells on addition of ALAFAC” value with Staphylococci (methicillin-resistant strain NRS 384) is “significantly increased”; in the series on Staphylococci (methicillin-sensitive strain), “no significant increase”. The “Intracellular Ca2+ (45Ca2+ uptake)” value with NRS 384 Staphylococci was “rose immediately”.

The values above are taken from US9526766B2, “Potentiation of antibiotic treatment with a protein-lipid complex” (priority 2012, dated 2016).
